Earlier results, collected in patent US20080311200A1, “Controlled Slow Release Formulation of Thiamine and Use Thereof in the Treatment of Pathologies Connected to Defective Process of Learning and Memorization” (BIOPROGRESS S.P.A., priority 2004, published 2008).

Test system: mechanism of active transport through the intestine wall

Cc1ncc(C[n+]2csc(CCO)c2C)c(N)n1 [thiamine]
concentration above which the active transport of intestinal absorption reaches saturation: higher than 2 μM
